In brackets after ≈: the same amount, converted by molar mass.
Columns and labels:
HT-29 [1] = assay: Growth inhibition of human HT-29 cells at 2 ml/L after 24 hrs by MTT assay relative to control; format: functional
HepG2 [2] = assay: Antiproliferative activity against human HepG2 cells by MTT assay; format: functional, cell-based
PC-3 [3] = assay: Induction of apoptosis in human PC3 cells assessed as late apoptotic cells at 50 mg/mL (reference value: 2.5%); format: functional
BXPC-3 = assay: Antiproliferative activity against human BxPC3 cells after 72 hrs by MTT assay; format: functional, cell-based; conditions: BXPC-3, 72 h
U-937 = assay: Antiproliferative activity against human U937 cells after 24 hrs by MTT assay; format: functional, cell-based; conditions: U-937, 24 h
C-33-A = assay: Antiproliferative activity against human C33A cells after 48 hrs by CCK8 assay; format: functional, cell-based
K562 = assay: Antiproliferative activity against human K562 cells after 72 hrs by MTT assay; format: functional, cell-based; conditions: K562, 72 h
[4] = Growth inhibition of human GRC1 cells at 0.8 g/L after 72 hrs by MTT assay relative to control; format: functional; conditions: read-out: GI
MCF7 [5] = assay: Antiproliferative activity against human MCF7 cells after 48 hrs relative to control; format: functional
HT-29 [6] = assay: Synergistic growth inhibition of human HT-29 cells at 2 mg/ml cotreated with 10 ug/ml irinotecan by MTT assay relative to control; format: functional
M21 [7] = assay: Growth inhibition of human M21 cells assessed as cell viability at 5 mg/ml after 48 hrs by MTT assay (reference value: 98%); format: functional; conditions: M21, 48 h, read-out: Activity
[8] = Growth inhibition of human GRC1 cells at 0.5 g/L after 72 hrs by MTT assay relative to control; format: functional; conditions: read-out: GI
HT-29 [9] = assay: Growth inhibition of human HT-29 cells at 16 ml/L after 24 hrs by MTT assay relative to control; format: functional
[10] = Growth inhibition of human GRC1 cells at 1.5 g/L after 72 hrs by MTT assay relative to control; format: functional; conditions: read-out: GI
T-24 = assay: Antiproliferative activity against human T24 cells after 48 hrs by CCK8 assay; format: functional, cell-based; conditions: T-24, 48 h
UMR108 [11] = assay: Growth inhibition of rat UMR108 cells assessed as cell proliferation at 1.5 mg/ml after 72 hrs by MTT assay (reference value: 0.403 +/- 0.009%); format: functional; conditions: UMR108, 72 h, read-out: Activity
D341 cell line [12] = assay: Growth inhibition of human D341 cells at 0.5 mg/ml after 72 hrs by CCK8 assay relative to control; format: functional; conditions: D341, 72 h, read-out: GI
[13] = Growth inhibition of human GRC1 cells at 1 g/L after 96 hrs by MTT assay relative to control; format: functional; conditions: read-out: GI
M21 [14] = assay: Growth inhibition of human M21 cells after 48 hrs by MTT assay; format: functional, cell-based; conditions: M21, 48 h
Bel-7402 = assay: Antiproliferative activity against human Bel7402 cells after 48 hrs by MTT assay; format: functional, cell-based; conditions: Bel-7402, 48 h
M21 [15] = assay: Induction of apoptosis in human M21 cells at 0.2 mg/ml after 48 hrs by Annexin V-FITC/propidium iodide staining based flow cytometry relative to control; format: functional
D341 cell line [16] = assay: Growth inhibition of human D341 cells at 1.5 mg/ml after 72 hrs by CCK8 assay relative to control; format: functional; conditions: D341, 72 h, read-out: GI
PC-3 [17] = assay: Growth inhibition of human PC3 cells at 6 g/L after 72 hrs relative to control; format: functional; conditions: PC-3, 72 h, read-out: GI
[18] = Antiproliferative activity against human 95-D cells at 2 g/L after 48 hrs by MTT assay relative to control; format: functional
UMR108 [19] = assay: Growth inhibition of rat UMR108 cells assessed as cell proliferation at 0.5 mg/ml after 24 hrs by MTT assay (reference value: 0.405 +/- 0.007%); format: functional; conditions: UMR108, 24 h, read-out: Activity
KYSE-150 cell line [20] = assay: Antiproliferative activity against human KYSE-150 cells after 24 hrs by MTT assay; format: functional, cell-based; conditions: KYSE-150, 24 h
[21] = Growth inhibition of human GRC1 cells at 0.3 g/L after 24 hrs by MTT assay relative to control; format: functional; conditions: read-out: GI
MCF7 [22] = assay: Antiproliferative activity against human MCF7 cells after 24 hrs relative to control; format: functional
U2OS = assay: Growth inhibition of human U2OS cells after 48 hrs by MTT assay; format: functional, cell-based
MCF7 [23] = assay: Antiproliferative activity against human MCF7 cells after 72 hrs relative to control; format: functional
RPMI-8226 [24] = assay: Growth inhibition of human RPMI8226 cells at 500 mg/L after 48 hrs by MTT assay relative to control; format: functional; conditions: RPMI-8226, 48 h, read-out: GI
KYSE-150 cell line [25] = assay: Antiproliferative activity against human KYSE-150 cells assessed as cell viability at 1.5 mg/ml after 24 hrs by MTT assay relative to control; format: functional; conditions: KYSE-150, 24 h, read-out: Activity
[26] = Growth inhibition of human GRC1 cells at 1 g/L after 24 hrs by MTT assay relative to control; format: functional; conditions: read-out: GI
[27] = Growth inhibition of human MM1R cells after 24 hrs; format: functional; conditions: MM.1R
PC-3 [28] = assay: Induction of apoptosis in human PC3 cells assessed as late apoptotic cells at 25 mg/mL (reference value: 2.5%); format: functional
RPMI-8226 [29] = assay: Induction of apoptosis in human RPMI8226 cells at 1000 mg/L after 48 hrs by Annexin V/propidium iodide staining based flow cytometry (reference value: 3.02 +/- 1.19%); format: functional
[30] = Growth inhibition of human GRC1 cells at 1.5 g/L after 96 hrs by MTT assay relative to control; format: functional; conditions: read-out: GI
MCF7 [31] = assay: Antiproliferative activity against human MCF7 cells after 48 hrs by MTT assay; format: functional, cell-based; conditions: MCF7, 48 h
HepG2 [32] = assay: Antiproliferative activity against human HepG2 cells at 1 mg/ml after 48 hrs by MTT assay relative to control; format: functional
HT-29 [33] = assay: Growth inhibition of human HT-29 cells at 32 ml/L after 24 hrs by MTT assay relative to control; format: functional
HepG2 [34] = assay: Induction of apoptosis in human HepG2 cells at 2 mg/ml by Annexin V-FITC/propidium iodide staining based flow cytometry (reference value: 0.14%); format: functional
HT-29 [35] = assay: Growth inhibition of human HT-29 cells at 32 ml/L after 48 hrs by MTT assay relative to control; format: functional
[36] = biological target: ATP-dependent translocase ABCB1 (Homo sapiens, UniProt P08183); assay: Reversal of P-gp-mediated drug resistance in human MCF7/ADR cells assessed as increase in adriamycin accumulation at 0.2 mg/ml relative to control; format: cell-based
ATP-dependent translocase ABCB1, sequence (P08183 whole entry): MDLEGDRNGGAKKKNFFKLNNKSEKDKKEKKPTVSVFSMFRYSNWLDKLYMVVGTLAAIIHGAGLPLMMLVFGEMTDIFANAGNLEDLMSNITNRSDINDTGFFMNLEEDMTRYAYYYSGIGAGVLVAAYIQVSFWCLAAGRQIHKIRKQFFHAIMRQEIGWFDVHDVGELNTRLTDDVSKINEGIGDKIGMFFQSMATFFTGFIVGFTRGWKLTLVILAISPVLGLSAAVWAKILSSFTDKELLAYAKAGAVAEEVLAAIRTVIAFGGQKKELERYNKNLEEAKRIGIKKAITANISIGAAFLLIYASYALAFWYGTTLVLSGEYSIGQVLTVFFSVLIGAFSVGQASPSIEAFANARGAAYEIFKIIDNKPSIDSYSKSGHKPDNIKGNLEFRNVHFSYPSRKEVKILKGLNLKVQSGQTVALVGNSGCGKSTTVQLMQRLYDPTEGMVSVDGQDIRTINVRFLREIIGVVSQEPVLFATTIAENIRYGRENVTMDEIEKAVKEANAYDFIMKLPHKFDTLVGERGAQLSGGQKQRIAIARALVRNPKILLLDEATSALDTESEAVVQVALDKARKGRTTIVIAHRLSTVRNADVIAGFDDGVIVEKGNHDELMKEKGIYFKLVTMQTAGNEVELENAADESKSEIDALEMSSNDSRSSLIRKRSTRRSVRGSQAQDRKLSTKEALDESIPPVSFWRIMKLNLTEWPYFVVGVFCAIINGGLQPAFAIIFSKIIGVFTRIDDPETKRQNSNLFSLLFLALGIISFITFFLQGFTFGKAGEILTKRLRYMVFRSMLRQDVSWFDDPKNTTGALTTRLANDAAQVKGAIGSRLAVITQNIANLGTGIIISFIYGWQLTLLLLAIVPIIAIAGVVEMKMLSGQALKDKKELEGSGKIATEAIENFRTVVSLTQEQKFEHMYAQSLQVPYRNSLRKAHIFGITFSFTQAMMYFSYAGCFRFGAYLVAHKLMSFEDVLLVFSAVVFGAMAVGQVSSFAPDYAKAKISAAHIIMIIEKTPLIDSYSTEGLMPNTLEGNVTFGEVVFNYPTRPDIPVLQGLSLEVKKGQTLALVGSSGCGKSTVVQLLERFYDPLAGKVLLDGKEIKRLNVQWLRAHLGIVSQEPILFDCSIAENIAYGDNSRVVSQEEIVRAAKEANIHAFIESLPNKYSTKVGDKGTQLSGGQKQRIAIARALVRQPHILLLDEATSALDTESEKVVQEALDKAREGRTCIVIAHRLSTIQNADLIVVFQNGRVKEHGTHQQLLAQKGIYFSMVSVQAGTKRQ

[37] = Growth inhibition of human GRC1 cells at 1 g/L after 48 hrs by MTT assay relative to control; format: functional; conditions: read-out: GI
A549 = assay: Antiproliferative activity against human A549 cells at 2 g/L after 48 hrs by MTT assay relative to control; format: functional
HT-29 [38] = assay: Growth inhibition of human HT-29 cells at 0.25 mg/ml by MTT assay relative to control; format: functional; conditions: read-out: GI
[39] = Growth inhibition of human GRC1 cells at 0.8 g/L after 96 hrs by MTT assay relative to control; format: functional; conditions: read-out: GI

In the case of `O=C1CCC[C@@H]2[C@H]3CCCN4CCC[C@@H](CN12)[C@@H]34` [MATRINE], the “growth inhibition (GI)” value (HT-29 [1]) is reported as 9.2%, the IC50 (HepG2 [2]) is reported as 8.07 mM and the Activity (PC-3 [3]) is reported as 21%. For the same compound, the IC50 (BXPC-3) was 2.94 mM, the IC50 (U-937) was 0.00237 mM and the IC50 (C-33-A) was 5.92 mM. The IC50 (K562) was 1.77 mM, the inhibition of growth at 800 µg/mL [4] was 25.4% and the Activity (MCF7 [5]) was 7.56 - 53.92%. For the same compound, the “growth inhibition (GI)” value (HT-29 [6]) was 95.29%, the viability at 5000 µg/mL (M21 [7]) was 20% and the inhibition of growth at 500 µg/mL [8] was 21.9%. The “growth inhibition (GI)” value (HT-29 [9]) was 59.35%, the inhibition of growth at 1500 µg/mL [10] was 34% and the IC50 (T-24) was 4.6 mM. It also gave a growth at 1500 µg/mL (UMR108 [11]) of 0.147%, an inhibition of growth at 500 µg/mL (D341 cell line [12]) of 12.7% and an inhibition of growth at 1000 µg/mL [13] of 45.8%. The IC50 (M21 [14]) was 3.1 mM, the IC50 (Bel-7402) was 3.22 mM and the Activity (M21 [15]) was 24.1%. The inhibition of growth at 1500 µg/mL (D341 cell line [16]) was 47.5%, the inhibition of growth at 6000 µg/mL (PC-3 [17]) was 90% and the Activity [18] was 20%. For the same compound, the growth at 500 µg/mL (UMR108 [19]) was 0.324%, the IC50 (KYSE-150 cell line [20]) was 7.82 mM and the inhibition of growth at 300 µg/mL [21] was 6.3%. The Activity (MCF7 [22]) was 6.01 - 37.01%, the IC50 (U2OS) was 7.25 mM and the Activity (MCF7 [23]) was 10.86 - 70.23%. For the same compound, the inhibition of growth at 500 µg/mL (RPMI-8226 [24]) was 17.9%, the viability at 1500 µg/mL (KYSE-150 cell line [25]) was 64% and the inhibition of growth at 1000 µg/mL [26] was 23.6%. The IC50 [27] was 5.4 mM, the Activity (PC-3 [28]) was 14.6% and the Activity (RPMI-8226 [29]) was 18.48%. For the same compound, the inhibition of growth at 1500 µg/mL [30] was 60.2%, the IC50 (MCF7 [31]) was 721 µg/mL (≈ 2900 µM) and the Activity (HepG2 [32]) was 14.81%. The “growth inhibition (GI)” value (HT-29 [33]) was 71.62%, the Activity (HepG2 [34]) was 38.8% and the “growth inhibition (GI)” value (HT-29 [35]) was 84.2%. For the same compound, the “fold change (FC)” value [36] was 3.56, the inhibition of growth at 1000 µg/mL [37] was 25.4% and the Activity (A549) was 20%. The inhibition of growth at 250 µg/mL (HT-29 [38]) was 12.2% and the inhibition of growth at 800 µg/mL [39] was 36.2%.
